In one experiment the test system is ROS in HepG2 cells. The experiment is described as follows: H2DCFDA staining of ROS. The format is cell-based. From the text:
The occurrence of apoptosis is characterized by morphological events and the activation of apoptotic signaling pathways. Herein, we detected the apoptosis events of HepG2 cells by fluorescence staining and Western blotting. […] Apoptosis-related proteins, such as Bax, cleaved caspase 3, and cleaved caspase 8, were increased, and Bcl-2 was decreased (Figure 2B).
Figure 2 Compound 5 promoted the apoptosis of HepG2 cells. (A) Fluorescence image of cell apoptosis in HepG2 cells. The cells were double stained with Annexin V and PI. Early apoptotic cells were stained with Annexin V, and late apoptotic cells were stained with PI. (B) HepG2 cells were treated with Compound 5 (25 μmol∙L^−1) for 24 h, and the protein expression was detected by western blot. (C) Fluorescence image of ROS in HepG2 cells. (D) HepG2 cells were treated with Compound 5 (25 μmol∙L^−1) for 24 h, and autophagy-related protein expression and AKT/mTOR were detected by western blotting. Data are expressed as the mean ± standard deviation. * p < 0.05, ** p < 0.01, *** p < 0.001 vs. the control group.

In experiment [1] the test system is Bax, cleaved caspase 3, cleaved caspase 8, Bcl-2, LC3-B, p62, AKT/mTOR in HepG2 cells. The experiment is described as follows: Western blot of apoptosis- and autophagy-related proteins in HepG2 cells. Type of experiment: cell-based. Particulars: HepG2, 25 μmol∙L−1, 24 h. The method, then: (§1) Protein samples were prepared using a RIPA lysis buffer. The concentration of the protein was analyzed using a nucleic acid and protein microanalyzer (Molecular Devices, San Jose, CA, USA). SDS–PAGE was performed to separate the proteins, which were then electrotransferred onto a PVDF membrane. The membrane was incubated with antibodies at 4 °C overnight. Next, the membrane was washed and incubated with an HRP-conjugated secondary antibody (Beyotime, BeiJing, China). Finally, signals were detected by the ECL method (Beyotime, BeiJing, China) and analyzed using ImageJ software.
A general note: Immunoblotting shows a protein as a band on a membrane.

The target in another experiment is T1, Na+-K+-ATPase (Homo sapiens, UniProt P05023).
T1 construct: endogenous in cells; host or cells: HepG2 (sonicated lysate supernatant)
Kind of experiment: Na+-K+-ATPase enzyme activity detection kit. The format is biochemical. The conditions noted are these: HepG2 cells. The method, then: HepG2 cells were collected in centrifuge tubes, and every 5 million cells were added to 1 mL reagent to sonicate the cells (power 20%, ultrasound 3S, interval 10 s, repeat 30 times). Then, the samples were centrifuged at 8000 rpm/min for 10 min at 4 °C. The supernatant was then collected and placed on ice for testing. The operation was performed according to the instructions of the Na^+-K^+-ATPase enzyme activity detection kit (Solarbio, Beijing, China).

Another experiment in a line: CETSA binding assay. Particulars: 50 μmoL−1, western blot. As to the method:
(§2) Figure 4 Compound 5 promoted the endocytosis and degradation of ATP1A1. (A) HepG2 cells were treated with 12.5 μmol∙L^−1 or 25 μmol∙L^−1 5 for 48 h, and the lysosomal co-localization assay was performed with a confocal laser. (B) Cells exposed to 25 μmol∙L^−1 5 for 12 h or 24 h were detected by fluorescence staining. (C) 5 is depicted in red, and the chains of Na^+, K^+-ATPase α/β/γ are represented by light blue, cyan-blue, and magenta, respectively. The crystallography, atomic coordinates, and structure factors have been deposited in the Protein Data Bank, www.pdb.org (accessed on 1 February 2023) (PDB ID code 3KDP). (D) The CETSA binding assay of ATP1A1 and β-actin in the presence or absence of 5 (50 μmoL^−1) at different temperatures was detected by western blot. The temperature-dependent melting curves and the apparent aggregation temperature were calculated by nonlinear regression. Values represent the mean ± SEM (N = 3 replicates).

The test system of experiment [2] is ATP1A1-related AKT and ERK signaling pathways. Kind of experiment: Western blot of AKT and ERK phosphorylation in HepG2 cells. Type of experiment: cell-based. Particulars: 5 at 25 μmol∙L−1, 0~60 min, digitonin 10 nmol∙L−1. As to the method:
An Na^+/K^+-ATPase inhibitor (digitonin), AKT inhibitor (MK 2206), and ERK inhibitor (FR 180204) were purchased from Biotech (Beijing, China). These agents were stored at −20 °C, and the cells were preincubated with the inhibitor for 4 h prior to treatment with the compounds. Digitonin, MK 2206, and FR 180204 were used at concentrations of 10, 40, and 200 nmol/L, respectively.
as §1

Experiment [3] has as its system HepG2 and RAW264.7 co-cultivation. Kind of experiment: Western blot in HepG2 and RAW264.7 co-cultivation. Type of experiment: cell-based. The conditions noted are these: 25 μmol∙L−1, 48 h. The method, then: L02, HepG2, and RAW264.7 cells were incubated in DMEM (Gibco, Carlsabad, CA, USA). Then, they were supplemented with 10% FBS (Gibco, Carlsbad, CA, USA) and 100 IU/mL streptomycin-penicillin (Solarbio, Beijing, China) in a CO2 chamber at 37 °C and 95% humidity. The morphology of the cells was observed using a reversed microscope (Olympus Corporation, Shinjuku, Japan) at × 200 magnifications. The Tissue Culture Plate Insert (LABSELECT, Beijing, China, Lot: 20421087A) chambers were used for HepG2 and RAW264.7-cell co-cultivation.
as §1
(§3) RAW264.7 cells (1.5 × 10^5 cells/well) and HepG2 cells (4 × 10^5 cells/well) were incubated in a Tissue Culture Plate Insert (LABSELECT, Hangzhou, China) at 37 °C and 95% humidity. Raw264.7 cells were incubated in 12-well plates, and HepG2 cells were incubated in Transwell chambers. After 24 h, the cells were treated with the compound for 48 h. Then, the chamber was discarded, and RAW264.7 cells were washed twice with PBS and a fresh medium. Next, 1.5 mL/well and 100 μL/well FluoSpheresTM carboxylate (Invitrogen, Carlsbad, CA, USA) were added to the medium for 2 h in the dark. Cells were washed twice with PBS, harvested, and then resuspended in 0.5 mL PBS. Finally, the cells were measured by a FACSCalibur (Becton Dickinson, Franklin Lakes, NJ, USA). Data were analyzed using FlowJo software.

Experiment [4] shares this test system. Kind of experiment: Cytokine levels by ELISA in co-cultivation. The format is cell-based. Particulars: 25 μmol∙L−1, 48 h. Background: ELISA stands for enzyme-linked immunosorbent assay.
For a further experiment, the system named is RAW264.7 cells. The experiment is described as follows: Phagocytosis of macrophages by flow cytometry. Particulars: co-cultivation, vs control group. Type of experiment: cell-based. The method, then:
as §3
In general terms: Flow cytometry measures light scatter and fluorescence of single cells or particles in a stream.

The target in a further experiment is ATP1A1 (Homo sapiens, UniProt P05023). The experiment is described as follows: CETSA binding assay. More on the design: we focused on the regulatory effect of 5 on ATP1A1 in HepG2 cells; endogenous in cells; host or cells: HepG2. Particulars: 50 μmoL−1, western blot. As to the method: as §2

As to `C[C@H](O)[C@]1(O)CC[C@@]2(O)[C@]1(C)[C@H](OC(=O)/C=C/c1ccccc1)C[C@@H]1[C@@]3(C)CC[C@H](O[C@H]4C[C@H](O)[C@H](O)[C@@H](C)O4)CC3=CC[C@]12O` [Compound 5, Cynsaccatol L], in the experiment with ROS in HepG2 cells, the ROS levels result was “significantly increased”. Moreover, in [1], the “Bax, cleaved caspase 3 and cleaved caspase 8 protein expression” value is reported as “increased”; the Bcl-2 protein expression entry is on record as “decreased”; the “expression of LC3-B and p62” value is listed as “upregulating”; the “phosphorylation of AKT and mTOR” value is listed as “inhibited”. Also, at Na+-K+-ATPase, the “activity of NAK (Na+-K+-ATPase)” value was “inhibited”. The “denaturation temperature of β-actin (CETSA)” value in the experiment “CETSA binding assay” is listed as “did not change”. Besides, the “phosphorylation of AKT and ERK and expression of ATP1A1” value in [2] was “all decreased”. In addition, in experiment [3] (vs C and C1 groups), the Bcl2 expression result is on record as “down-regulating”; the “expression of cleaved-caspase 3, cleaved-caspase 8, LC3B, p62 and Bax” value is recorded as “significantly upregulate”. In experiment [3] (western blot), the “expression of CD206 and ARG-1” value was “downregulated”. Also, in experiment [4] (vs C0, C1 and C2 groups), the “levels of TNF-α and IFN-γ” value is given as “significantly upregulate”. Further, the “levels of IL-6 and IL-10” value in experiment [4] (vs C0 group) is “decreased significantly”. Besides, the “phagocytic ability of macrophages” value with RAW264.7 cells is reported as “significantly upregulated”. For the same compound, the “denaturation temperature of ATP1A1 (CETSA)” value on ATP1A1 is given as “higher than that of the control group”.

Values taken from article PMC10058894, “Bioactive C21 Steroidal Glycosides from Euphorbia kansui Promoted HepG2 Cell Apoptosis via the Degradation of ATP1A1 and Inhibited Macrophage Polarization under Co-Cultivation” (Molecules, 2023).
